Results reported in ChEMBL document CHEMBL1201862, “PubChem BioAssay data set” (2004).
Calls of active or inactive are those of the source.

What was measured:
[1] = molecular target: T1, Low molecular weight phosphotyrosine protein phosphatase (Homo sapiens, UniProt P24666); assay type: functional; conditions: read-out: IC50_Mean
T1 sequence (P24666 whole entry): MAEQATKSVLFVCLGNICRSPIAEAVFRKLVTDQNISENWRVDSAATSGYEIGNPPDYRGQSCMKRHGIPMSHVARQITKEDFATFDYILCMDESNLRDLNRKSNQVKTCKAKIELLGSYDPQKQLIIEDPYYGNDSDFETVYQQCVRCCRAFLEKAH

[2] = molecular target: T1, Low molecular weight phosphotyrosine protein phosphatase; assay type: functional; conditions: read-out: IC50_Mean; remark: listed apart in the source
[3] = molecular target: T2, Sentrin-specific protease 1 (Homo sapiens, UniProt Q9P0U3); experiment: Dose response confirmation of small molecule inhibitors of the catalytic domain of the SUMO protease, SENP1 in a FRET assay.; assay type: functional; conditions: read-out: IC50_Mean
T2 sequence (Q9P0U3 whole entry, the tested form may be a part): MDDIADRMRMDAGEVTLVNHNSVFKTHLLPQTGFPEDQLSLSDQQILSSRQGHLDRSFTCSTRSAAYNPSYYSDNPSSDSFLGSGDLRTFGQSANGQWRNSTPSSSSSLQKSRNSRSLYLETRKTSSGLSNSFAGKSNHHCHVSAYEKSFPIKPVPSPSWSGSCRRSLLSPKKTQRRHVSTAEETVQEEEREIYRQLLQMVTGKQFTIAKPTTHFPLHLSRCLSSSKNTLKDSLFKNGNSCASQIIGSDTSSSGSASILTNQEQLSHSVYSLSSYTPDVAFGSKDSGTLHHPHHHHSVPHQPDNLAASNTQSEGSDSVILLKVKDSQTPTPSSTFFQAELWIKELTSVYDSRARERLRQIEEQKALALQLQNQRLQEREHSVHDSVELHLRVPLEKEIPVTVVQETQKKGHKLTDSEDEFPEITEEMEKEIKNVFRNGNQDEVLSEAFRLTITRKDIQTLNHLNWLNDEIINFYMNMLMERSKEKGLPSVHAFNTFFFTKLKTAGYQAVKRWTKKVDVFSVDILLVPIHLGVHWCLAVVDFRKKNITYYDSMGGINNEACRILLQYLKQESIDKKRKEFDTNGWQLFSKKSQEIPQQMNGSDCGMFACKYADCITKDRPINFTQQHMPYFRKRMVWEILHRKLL

[4] = molecular target: T2, Sentrin-specific protease 1; experiment: SENP1 catalytic domain blockers, concentration series – biochemical, kinetic FRET, dose response (AID 651697); assay type: functional; conditions: read-out: IC50_Mean
[5] = test system: HEK293; experiment: cells; conditions: Homo sapiens
[6] = molecular target: T3, Interleukin-8 (Homo sapiens, UniProt P10145); experiment: Dose Response confirmation of uHTS small molecule hits for cystic fibrosis induced NFkb Inhibitors in a PAF-induced IL8 counterscreen.; assay type: functional; conditions: read-out: IC50_Mean
T3 sequence (P10145 whole entry): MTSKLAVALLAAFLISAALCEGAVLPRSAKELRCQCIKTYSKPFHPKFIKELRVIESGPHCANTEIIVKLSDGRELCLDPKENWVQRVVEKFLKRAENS

[7] = molecular target: T3, Interleukin-8; experiment: Dose Response confirmation of uHTS small molecule hits for cystic fibrosis induced NFkb Inhibitors in a TNFa-induced IL8 counterscreen.; assay type: functional; conditions: read-out: IC50_Mean
[8] = molecular target: Kallikrein-7 (Homo sapiens, UniProt P49862); experiment: Fluorescence Intensity-based biochemical primary high throughput dose response assay to identify activators of kallikrein-7 (K7) zymogen.
[9] = test system: HEK293; experiment: cells; conditions: Homo sapiens; remark: listed apart in the source
[10] = molecular target: Multidrug resistance protein CDR2 (Candida albicans (strain SC5314 / ATCC MYA-2876) (Yeast), UniProt P78595); experiment: blockers of Nile Red efflux by Candida CDR2 – S. cerevisiae AD1-8u, singleplex, Cherry Pick2 set, dose response (AID 623994); assay type: functional; conditions: read-out: EC50_MICROM
Chain of Multidrug resistance protein CDR2 (P78595 whole entry): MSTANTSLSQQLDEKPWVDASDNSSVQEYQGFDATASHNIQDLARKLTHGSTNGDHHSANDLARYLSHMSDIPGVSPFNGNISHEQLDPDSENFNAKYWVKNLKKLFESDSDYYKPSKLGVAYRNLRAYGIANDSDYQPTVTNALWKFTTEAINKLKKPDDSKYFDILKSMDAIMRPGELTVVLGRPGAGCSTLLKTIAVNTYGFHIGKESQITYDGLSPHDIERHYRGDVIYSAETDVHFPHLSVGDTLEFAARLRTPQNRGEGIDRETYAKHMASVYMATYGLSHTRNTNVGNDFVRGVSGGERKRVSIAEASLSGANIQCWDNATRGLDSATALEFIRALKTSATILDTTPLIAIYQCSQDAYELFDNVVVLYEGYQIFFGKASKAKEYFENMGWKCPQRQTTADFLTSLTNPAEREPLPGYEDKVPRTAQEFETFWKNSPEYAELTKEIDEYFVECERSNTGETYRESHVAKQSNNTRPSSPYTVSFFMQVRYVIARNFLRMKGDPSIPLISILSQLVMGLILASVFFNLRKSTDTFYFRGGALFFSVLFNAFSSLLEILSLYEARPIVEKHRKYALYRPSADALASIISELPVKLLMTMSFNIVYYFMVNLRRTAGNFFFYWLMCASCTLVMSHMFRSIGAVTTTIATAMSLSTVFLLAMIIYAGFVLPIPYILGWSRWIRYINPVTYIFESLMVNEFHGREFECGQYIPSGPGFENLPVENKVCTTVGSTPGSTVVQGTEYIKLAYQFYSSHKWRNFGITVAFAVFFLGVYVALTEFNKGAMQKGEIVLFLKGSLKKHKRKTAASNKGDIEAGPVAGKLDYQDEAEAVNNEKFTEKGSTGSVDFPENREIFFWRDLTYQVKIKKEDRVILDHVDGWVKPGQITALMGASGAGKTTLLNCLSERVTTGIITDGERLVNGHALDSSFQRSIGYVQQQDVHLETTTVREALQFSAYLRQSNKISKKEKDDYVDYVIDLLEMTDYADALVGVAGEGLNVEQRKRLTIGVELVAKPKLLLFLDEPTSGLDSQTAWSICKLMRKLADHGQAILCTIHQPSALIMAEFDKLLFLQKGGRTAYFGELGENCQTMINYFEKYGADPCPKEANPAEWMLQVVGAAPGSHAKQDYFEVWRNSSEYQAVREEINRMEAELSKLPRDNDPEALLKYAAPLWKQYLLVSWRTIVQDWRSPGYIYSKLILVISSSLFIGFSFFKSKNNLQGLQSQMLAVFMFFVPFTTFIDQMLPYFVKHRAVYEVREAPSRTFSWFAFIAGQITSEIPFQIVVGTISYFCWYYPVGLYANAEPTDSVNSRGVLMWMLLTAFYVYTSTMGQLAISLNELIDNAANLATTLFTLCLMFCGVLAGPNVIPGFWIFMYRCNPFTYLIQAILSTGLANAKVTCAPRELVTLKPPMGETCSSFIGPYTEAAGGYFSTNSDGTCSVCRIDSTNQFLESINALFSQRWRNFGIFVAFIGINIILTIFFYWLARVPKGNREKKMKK

[11] = fluconazole-exposed Candida albicans growth modulators – fluorescence, retest, confirmation (AID 2467); assay type: functional, cell-based
[12] = NIH-3T3 fibroblast cytotoxicity, dose response, cytotoxicity control, cell-based, fluorescence, Alamar Blue, secondary assay (AID 2327); assay type: functional;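 note: NIH-3T3 mouse fibroblasts cultured with fluconazole at 8 µg/mL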
[13] = molecular target: T4, ATP-dependent translocase ABCB1 (Homo sapiens, UniProt P08183); experiment: inhibition of BCRP-mediated JC-1 efflux – Ig-MXP3 cells, flow cytometry, set 2, dose response (AID 504566); assay type: functional; conditions: read-out: EC50_MICROM_;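 note: flow cytometry median green fluorescence of retained JC-1 dye; potency of efflux pump inhibition measured as rising substrate retention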
T4 sequence (P08183 whole entry): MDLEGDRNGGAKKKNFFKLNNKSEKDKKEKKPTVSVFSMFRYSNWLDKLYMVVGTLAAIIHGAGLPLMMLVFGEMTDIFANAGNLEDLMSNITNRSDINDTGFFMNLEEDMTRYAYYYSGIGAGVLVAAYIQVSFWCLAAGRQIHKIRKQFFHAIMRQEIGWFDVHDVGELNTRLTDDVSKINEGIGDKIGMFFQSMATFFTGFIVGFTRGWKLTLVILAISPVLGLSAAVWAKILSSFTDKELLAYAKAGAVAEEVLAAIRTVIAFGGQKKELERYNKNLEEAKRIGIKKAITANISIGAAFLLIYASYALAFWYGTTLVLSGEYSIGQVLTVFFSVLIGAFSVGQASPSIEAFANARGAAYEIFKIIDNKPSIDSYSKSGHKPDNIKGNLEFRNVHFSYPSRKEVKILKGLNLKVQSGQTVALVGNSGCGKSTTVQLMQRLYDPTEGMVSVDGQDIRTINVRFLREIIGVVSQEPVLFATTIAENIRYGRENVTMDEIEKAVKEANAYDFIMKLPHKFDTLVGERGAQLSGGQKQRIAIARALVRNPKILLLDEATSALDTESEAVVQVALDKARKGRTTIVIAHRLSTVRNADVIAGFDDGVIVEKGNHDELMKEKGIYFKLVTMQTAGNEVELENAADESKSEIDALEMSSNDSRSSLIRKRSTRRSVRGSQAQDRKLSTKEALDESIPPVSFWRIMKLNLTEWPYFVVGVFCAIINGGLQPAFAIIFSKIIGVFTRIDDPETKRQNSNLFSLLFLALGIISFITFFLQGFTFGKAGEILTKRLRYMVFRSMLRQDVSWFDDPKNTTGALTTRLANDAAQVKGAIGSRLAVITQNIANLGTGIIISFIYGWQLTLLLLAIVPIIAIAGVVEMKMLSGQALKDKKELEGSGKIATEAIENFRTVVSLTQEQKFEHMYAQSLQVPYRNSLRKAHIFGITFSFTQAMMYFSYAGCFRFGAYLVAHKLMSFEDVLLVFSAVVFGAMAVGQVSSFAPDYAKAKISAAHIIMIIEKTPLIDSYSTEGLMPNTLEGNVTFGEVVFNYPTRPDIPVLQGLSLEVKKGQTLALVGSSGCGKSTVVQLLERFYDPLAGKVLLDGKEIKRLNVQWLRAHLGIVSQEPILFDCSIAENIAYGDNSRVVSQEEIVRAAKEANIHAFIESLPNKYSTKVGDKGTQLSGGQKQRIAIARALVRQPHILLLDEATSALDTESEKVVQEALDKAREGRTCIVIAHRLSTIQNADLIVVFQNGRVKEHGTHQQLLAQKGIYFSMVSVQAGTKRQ

[14] = molecular target: T4, ATP-dependent translocase ABCB1; experiment: P-gp JC-1 efflux blockade concentration-response – Jurkat-DNR cells, flow cytometry, set 2, dose response (AID 504569); assay type: functional; conditions: read-out: EC50_MICROM_;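 note: potency of pump inhibitors that raise cellular JC-1 green fluorescence up to the nicardipine level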
[15] = mouse fibroblast viability loss – cell-based, cherry-pick samples, set 2, cytotoxicity control for T. cruzi growth inhibitor project, dose response (AID 651817); assay type: functional; conditions: NIH3T3
[16] = intracellular Trypanosoma cruzi inhibitors in host cells – cell-based, plate reader, cherry-pick samples, set 3, dose response (AID 651818); assay type: functional;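 note: compounds incubated with infected cells for about four days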
[17] = test system: HEK293; experiment: cells; assay type: functional, cell-based; conditions: Homo sapiens
[18] = molecular target: Nonstructural protein 1 (Influenza A virus, UniProt Q194T2); assay type: functional, Influenza A virus (A/California/07/2009(H1N1))
[19] = test system: HEK293; experiment: NOD2 signaling inhibitors in MDP-stimulated cells, cell-based, uHTS, luminescence (AID 2001); assay type: functional; conditions: Homo sapiens
[20] = test system: HEK293; experiment: cells; assay type: functional, cell-based; conditions: Homo sapiens; remark: listed apart in the source
[21] = molecular target: Photoreceptor-specific nuclear receptor (Homo sapiens, UniProt Q9Y5X4); assay type: functional, cell-based;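 note: CHO-S cells with Gal4-NCOR and VP16-NR2E3 two-hybrid luciferase reporter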
Chain of Photoreceptor-specific nuclear receptor (Q9Y5X4 whole entry, the tested form may be a part): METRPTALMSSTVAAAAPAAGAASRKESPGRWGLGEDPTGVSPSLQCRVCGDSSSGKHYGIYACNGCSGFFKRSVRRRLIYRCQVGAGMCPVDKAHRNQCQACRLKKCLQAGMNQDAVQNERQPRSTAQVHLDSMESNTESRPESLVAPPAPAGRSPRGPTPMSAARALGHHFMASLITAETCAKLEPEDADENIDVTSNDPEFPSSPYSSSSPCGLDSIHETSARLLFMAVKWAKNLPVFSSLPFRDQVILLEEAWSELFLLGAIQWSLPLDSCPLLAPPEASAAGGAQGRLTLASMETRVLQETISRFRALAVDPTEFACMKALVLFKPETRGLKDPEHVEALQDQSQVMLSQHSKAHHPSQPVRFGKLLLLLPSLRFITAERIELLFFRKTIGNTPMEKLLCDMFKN

[22] = test system: HEK293; experiment: inhibition of NOD1-driven NF-kB reporter – cell-based, luminescence, uHTS, primary screen (AID 1578); assay type: functional; conditions: Homo sapiens
[23] = molecular target: T5, Heat shock factor protein 1 (Mus musculus, UniProt P38532); experiment: decrease of HSF1-responsive luciferase luminescence – cell-based, NIH3T3, dose retest, confirmation (AID 2382); assay type: functional;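 note: NIH3T3 fibroblasts with HSF1-driven luciferase reporter stressed by proteasome inhibitor MG132; luminescence from HSF1-driven luciferase expression after 8 hours of MG132 stress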
T5 sequence (P38532 whole entry): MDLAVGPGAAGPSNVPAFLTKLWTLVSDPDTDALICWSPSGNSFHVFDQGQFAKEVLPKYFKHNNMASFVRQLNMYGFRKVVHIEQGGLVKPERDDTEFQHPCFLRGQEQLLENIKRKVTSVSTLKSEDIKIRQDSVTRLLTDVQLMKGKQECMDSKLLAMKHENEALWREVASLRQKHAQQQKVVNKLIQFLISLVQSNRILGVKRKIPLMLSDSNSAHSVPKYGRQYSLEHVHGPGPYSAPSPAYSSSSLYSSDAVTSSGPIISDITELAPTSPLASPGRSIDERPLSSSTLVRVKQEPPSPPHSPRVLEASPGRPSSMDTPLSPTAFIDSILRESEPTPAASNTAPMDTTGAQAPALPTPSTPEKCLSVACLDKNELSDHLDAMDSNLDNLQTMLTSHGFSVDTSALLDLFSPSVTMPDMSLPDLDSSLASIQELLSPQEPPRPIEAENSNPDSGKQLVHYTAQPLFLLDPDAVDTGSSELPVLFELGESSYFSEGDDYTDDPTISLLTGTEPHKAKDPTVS

[24] = molecular target: T6, Small ubiquitin-related modifier 2 (Homo sapiens, UniProt P61956); experiment: disruption of SUMO2 interaction with SIM peptide – biochemical, fluorescence polarization, uHTS hits, selectivity assay for SUMO1 interaction inhibitor project, dose response (AID 624385); assay type: functional; conditions: read-out: IC50_Mean
T6 sequence (P61956 whole entry): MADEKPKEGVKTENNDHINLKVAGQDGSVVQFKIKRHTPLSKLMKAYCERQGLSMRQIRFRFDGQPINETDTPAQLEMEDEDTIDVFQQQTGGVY

[25] = molecular target: T7, Probable nicotinate-nucleotide adenylyltransferase (Staphylococcus aureus (strain N315), UniProt P65502); assay type: functional, Staphylococcus aureus subsp. aureus N315; conditions: read-out: IC50_Mean;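 for IC50 Mean: confirmatory dose-response retesting of NadD inhibitor hits first found in an ultra-high-throughput screen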
T7 sequence (P65502 whole entry): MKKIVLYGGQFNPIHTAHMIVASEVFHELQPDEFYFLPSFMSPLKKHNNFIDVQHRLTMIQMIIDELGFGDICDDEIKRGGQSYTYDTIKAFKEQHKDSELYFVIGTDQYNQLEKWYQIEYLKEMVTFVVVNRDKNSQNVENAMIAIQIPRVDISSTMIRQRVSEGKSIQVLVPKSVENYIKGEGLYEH

[26] = molecular target: T6, Small ubiquitin-related modifier 2; experiment: SUMO2 binding disruption by SUMO1 hits – biochemical, FRET, human SUMO2, uHTS hits, selectivity assay for SUMO1 interaction inhibitor project, dose response (AID 624384); assay type: functional; conditions: read-out: IC50_Mean
[27] = molecular target: T7, Probable nicotinate-nucleotide adenylyltransferase; assay type: functional, Staphylococcus aureus subsp. aureus N315
[28] = molecular target: T8, Small ubiquitin-related modifier 1 (Homo sapiens, UniProt P63165); experiment: SUMO1 protein-protein binding blockers, potency – biochemical, FRET, dose response (AID 624383); assay type: functional; conditions: read-out: IC50_Mean
T8 sequence (P63165 whole entry): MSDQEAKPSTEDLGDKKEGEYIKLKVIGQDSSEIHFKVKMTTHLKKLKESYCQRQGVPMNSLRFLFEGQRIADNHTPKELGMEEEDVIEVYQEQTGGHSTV

[29] = molecular target: T9, Polyadenylate-binding protein 1 (Homo sapiens, UniProt P11940); experiment: MLLE binding blockers, Cy5 peptide tracer – biochemical, fluorescence polarization, Cy5-PAM2 peptide, secondary, miRNA deadenylation inhibitor project, dose response (AID 602260); assay type: functional; conditions: read-out: IC50_Mean
T9 sequence (P11940 whole entry, the tested form may be a part): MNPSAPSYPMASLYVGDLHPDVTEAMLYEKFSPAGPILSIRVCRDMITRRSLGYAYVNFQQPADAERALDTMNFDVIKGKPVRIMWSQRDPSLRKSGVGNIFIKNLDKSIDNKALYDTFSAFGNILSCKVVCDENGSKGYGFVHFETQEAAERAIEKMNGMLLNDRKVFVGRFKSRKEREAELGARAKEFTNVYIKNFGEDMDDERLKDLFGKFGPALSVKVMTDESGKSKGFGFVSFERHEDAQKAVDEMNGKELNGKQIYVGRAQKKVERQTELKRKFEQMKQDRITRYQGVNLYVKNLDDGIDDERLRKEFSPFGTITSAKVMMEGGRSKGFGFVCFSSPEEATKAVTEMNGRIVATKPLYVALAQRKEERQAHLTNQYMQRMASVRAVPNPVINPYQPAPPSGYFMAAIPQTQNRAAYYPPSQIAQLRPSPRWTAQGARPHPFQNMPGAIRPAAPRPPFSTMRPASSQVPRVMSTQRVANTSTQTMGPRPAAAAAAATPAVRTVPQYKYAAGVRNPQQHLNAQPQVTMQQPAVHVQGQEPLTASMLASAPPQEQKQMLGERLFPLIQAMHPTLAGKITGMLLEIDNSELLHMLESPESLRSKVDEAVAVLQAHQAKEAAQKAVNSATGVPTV

[30] = molecular target: T9, Polyadenylate-binding protein 1; experiment: MLLE domain peptide-binding blockers, IC50 – biochemical, fluorescence polarization, FITC-PAM2 peptide, dose response (AID 602259); assay type: functional; conditions: read-out: IC50_Mean
[31] = molecular target: T8, Small ubiquitin-related modifier 1; experiment: SUMO1 protein interaction blockers, potency – biochemical, fluorescence polarization, uHTS hits, dose response (AID 624382); assay type: functional; conditions: read-out: IC50_Mean
[32] = molecular target: Protein Wnt-3a (Mus musculus, UniProt P27467); experiment: antagonism of Wnt3a pathway luciferase reporter – Wnt-LIGHT cells, luminescence, selectivity assay for Gli-SUFU antagonist project, dose response (AID 651570); assay type: functional; conditions: read-out: IC50_Mean;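 note: Wnt-LIGHT reporter cells stimulated with conditioned medium from Wnt3a-producing cells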
[33] = Fluorescence-based cell-based high throughput dose response assay for inhibitors of the interaction of nucleotide-binding oligomerization domain containing 2 (NOD2) and the receptor-interacting serine-threonine kinase 2 (RIPK2).; assay type: functional; conditions: Homo sapiens
[34] = molecular target: T10, Mitochondrial peptide methionine sulfoxide reductase (Bos taurus, UniProt P54149); assay type: functional;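 note: absorbance read-out, biochemical high-throughput dose-response screen for MsrA inhibitors, confirmatory; recombinant bovine MsrA coupled to E. coli TrxB with NADPH and selenocystamine; potency is for inhibitors of MsrA activity on DMSO substrate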
T10 sequence (P54149 whole entry): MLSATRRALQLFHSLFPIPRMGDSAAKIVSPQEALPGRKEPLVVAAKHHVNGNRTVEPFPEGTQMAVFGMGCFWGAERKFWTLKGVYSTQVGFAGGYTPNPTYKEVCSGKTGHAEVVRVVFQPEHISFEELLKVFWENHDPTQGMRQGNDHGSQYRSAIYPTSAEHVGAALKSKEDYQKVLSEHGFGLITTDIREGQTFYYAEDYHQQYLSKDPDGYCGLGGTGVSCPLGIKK

## O=C(CCCOc1ccc(Cl)cc1Cl)NNC(=O)c1ccc(NC(=O)c2ccccc2)cc1
[1]
  IC50: 8.44 µM (active)
[2]
  IC50: 11.2 µM (active)

## O=C(O)c1ccc(N/N=C/c2cccc3nccnc23)cc1
[3]
  IC50: 8.97 µM (active)
[4]
  IC50: 15.1 µM (active)

## O=C(NCCc1ccccc1)c1coc(=O)c(Br)c1
[5]
  EC50: > 59.6 µM (inactive)
[6]
  IC50: 0.987 µM (active)
[7]
  IC50: 0.684 µM (active)
[8]
  EC50: 16.5 µM (inactive)
[9]
  EC50: > 59.6 µM (inactive)

## CCC(=O)N1CCN(c2ccc(Cl)cc2NC(=O)c2ccc3c(c2)OCCO3)CC1
[10]
  EC50: 32.1 µM (active)
[11]
  EC50: 3.35 µM (active)
[12]
  EC50: 117 µM (active)

## O=C(c1ccco1)N1CCN(c2cc(-c3ccccc3)nc3cc(-c4cccc(F)c4)nn23)CC1
[13]
  EC50: 1.05 µM (active)
[14]
  EC50: 3.4 µM (active)

## C[C@H]1CN([C@@H](C)CO)C(=O)c2cccc(NC(=O)c3nc4ccccc4s3)c2O[C@H]1CN(C)S(=O)(=O)c1ccccc1
[15]
  AC50: 39 µM (inactive)
[16]
  AC50: 2.55 µM (active)

## CCOc1ccc(-c2nc(CSCC(=O)N3CCN(c4cccc(OC)c4)CC3)c(C)o2)cc1
[17]
  IC50: 8.52 µM (active)
[18]
  IC50: > 100 µM (active)
[19]
  IC50: 5.09 µM (active)
[20]
  IC50: 4.42 µM (active)
[21]
  IC50: 4 µM (active)
[22]
  EC50: 5.87 µM (active)
[23]
  EC50: 48 µM (active)

## O=C(Nc1ccc2nc(-c3ccco3)c(-c3ccco3)nc2c1)N1CCN(c2ccccn2)CC1
[24]
  IC50: 8.13 µM (active)
[25]
  IC50: 19.7 µM (active)
[26]
  IC50: 24.6 µM (inactive)
[27]
  IC50: 8.98 µM (active)
[28]
  IC50: 51.7 µM (inactive)
[29]
  IC50: > 66 µM (inactive)
[30]
  IC50: > 66 µM (inactive)
[31]
  IC50: 6.94 µM (active)

## C=CCNC(=S)/N=c1/ccccn1Cc1ccccc1
[32]
  IC50: 40.8 µM (inactive)

## C=CC(=O)N1C/C(=C/c2ccccc2)C(=O)/C(=C\c2ccccc2)C1
[33]
  IC50: 3.66 µM (active)

## C/C(CCC(C)C)=N\Nc1ccc(S(N)(=O)=O)cc1[N+](=O)[O-]
[34]
  IC50: 155 µM (inactive)
